From US7244724B2, “Pyrrolobenzodiazepines” (United States of America, Represented by the Secretary, …, priority 2003, dated 2007)

What was measured:
[1] = system: K562 human chronic myeloid leukaemia cells; test: K562 assay (MTT cytotoxicity); type: cell-based; details: 96 h, 4 days incubation, n=2
Protocol: An initial stock of compound (in 0.006% DMSO) was used to generate a 1:3 dilution series ranging from 600 nM to 30 pM be the sequential addition of 40 μL compound to 80 μL of solvent (0.006% DMSO in sterile H2O). 10 μL of each point of the dilution range was transferred to a 96 well assay plate (Nunc, Cat. No. 163320) to generate four replica points per compound concentration. K562 human chronic myeloid leukaemia cells were maintained in RPM1 1640 medium supplemented with 10% foetal calf serum and 2 mM glutamine at 37° C. in a humidified atmosphere containing 5% CO2. 190 μL of a 5×10^4 cell solution was added to each well of the assay plate using a Matrix Wellmate (Apogent Discoveries), resulting in a total of 9.5×10^3 cells/well. Working compound concentrations therefore ranged from 30 nM to 1.5 pM. Plates were then kept in the dark at 37° C. in a humidified atmosphere containing 5% CO2. The assay is based on the ability of viable cells to reduce a yellow soluble tetrazolium salt, 3-(4,5-dimethylthiazol-2-yl)-2,5-diphenyl-2H-tetrazolium bromide (MTT, Aldrich-Sigma), to an insoluble purple formazan precipitate. […] The optical density was then read at a wavelength of 540 nm on a Fusion plate reader (Perkin Elmer). […]

[2] = Stability in d6-DMSO, d4-MeOH and D2O by 1H NMR (Study 4); type: physicochemical
Protocol: Samples of SJG-720 (˜3 mg) were dissolved in d6-DMSO, D2O and d4-MeOH (Cambridge Isotopes) and transferred to separate NMR tubes (Wilmad, 5 mm). ^1H NMR spectra were obtained on a Bruker Avance 400 MHz NMR spectrophotometer (typically 64 scans). ^13C and DEPT (Distortionless Enhancement through Polarized Transfer) experiments were performed on these samples using the same instrument at the appropriate field strength (100 MHz).
NMR spectra were recorded, as described above, after the following time intervals: • d6-DMSO, 1 hr, 8 days. • D2O, 3 hrs, 8 days. • d4-MeOH, 10 minutes, 3 days. Additional Studies
NMR experiments were carried out on SJG-136 in its carbinolamine forms. […] However, strong signals corresponding to the kinetic and thermodynamic carbinolamine forms can be observed when the sample is analysed in d6-DMSO. These gradually disappear from the spectra over a period of about 24 hours when the imine form becomes the predominant species.
Samples of the bisulphite adduct SJG-720 dissolved in d6-DMSO and D2O were stored at room temperature for over a period of 7 days and then analysed by ^1H NMR spectroscopy. […] In addition, a sample of SJG-720 stored at room temperature in d4-MeOH for over 3 days was also analysed by ^1H NMR.

Compound | IC50 [1] [nM] | Interconversion of carbinolamine forms to imine ([2]; CDCl3 or CD3CN) | Period over which carbinolamine form signals disappear and the imine form becomes predominant ([2]; carbinolamine forms in d6-DMSO) | Stability in D2O (1H NMR spectrum change) ([2]; D2O, room temperature, over 7 days) | Stability in d4-MeOH (interconversion to carbinolamine methyl ether) ([2]; d4-MeOH, room temperature, over 3 days) | Stability in d6-DMSO (reversion to parent imine) ([2]; d6-DMSO, room temperature, over 7 days)
C=C1C[C@H]2C=Nc3cc(OCCCOc4cc5c(cc4OC)C(=O)N4CC(=C)C[C@H]4C=N5)c(OC)cc3C(=O)N2C1 [SJG-136] | < 10 | revert to the imine form immediately | about 24 hours | – | – | –
C=C1C[C@H]2C(S(=O)(=O)[O-])Nc3cc(OCCCOc4cc5c(cc4OC)C(=O)N4CC(=C)C[C@H]4C(S(=O)(=O)[O-])N5)c(OC)cc3C(=O)N2C1.[Na+].[Na+] (stereo partly drawn) [SJG-720, 1,1′[[(Propane-1,3-diyl)dioxy]bis(11aS)-11-sulpho-7-methoxy-2-methylidene-1,2,3,10,11,11a-hexahydro-5H-pyrrolo[2,1-c][1,4-benzodiazepin-5-one]] sodium salt] | – | – | – | no appreciable hydrolysis had occurred | interconversion to the carbinolamine methyl ether from was not observed | complete absence of parent imine SJG-136 signals
